Common to all, as to assay type: biochemical
The target of assay [1] is T1, CDK4/Cyclin D1 (Homo sapiens (Human), UniProt P11802). In words: CDK4/Cyclin D1 Mobility Shift Assay (MSA). As to conditions: read-out: CDK4/CyclinD1 MSA IC50. From the text:
CDK4/Cyclin D1 Mobility Shift Assay (MSA) The purpose CDK4/Cyclin D1 assay is to evaluate the inhibition (% inhibition and IC50 values) in the presence of small molecule inhibitors by using a fluorescence based microfluidic mobility shift assay. CDK4/Cyclin D1 catalyzes the production of ADP from ATP that accompanies the phosphoryl transfer to the substrate peptide 5-FAM-Dyrktide (5-FAM-[…]) (Perkin Elmer Peptide 34). The mobility shift assay (MSA) electrophoretically separates the fluorescently labelled peptides (substrate and phosphorylated product) following the kinase reaction. Both substrate and product are measured, and the ratio of these values is used to generate % conversion of substrate to product by the LabChip EZ Reader. Typical reaction solutions contained 2% DMSO (+/−inhibitor), 10 mM MgCl2, 1 mM EGTA, 0.05% BSA, 2 mM DTT, 0.2 mM ATP, 0.01% Brig-35, 1.5 uM 5-FAM-Dyrktide, 2.5 nM CDK4/Cyclin D1 in 50 mM HEPES buffer at pH 7.5. The reaction was initiated with the addition of substrate solution, following a 30-minute pre-incubation of enzyme and inhibitor at 22° C. in the reaction mix. The reaction was stopped after 180 minutes by the addition of 75 μL of 500 mM EDTA and measured on a Perkin Elmer EZ reader instrument. IC50 determinations were made from a plot of the fractional velocity as a function of inhibitor concentration fit to the 4 parameters IC50 equation.

Assay [2] deals with CDK6/Cyclin D3 (Homo sapiens (Human), UniProt Q00534). Description: CDK6/Cyclin D3 ADP-Glo Kinase Assay. As to conditions: read-out: CDK6/CyclinD3 IC50. Summed up: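 Commercial CDK6/Cyclin D3 pre-incubated with inhibitor 30 min at room temperature, then reaction started with ATP/substrate and run 90 min at room temperature. ADP formed measured by ADP-Glo luminescence; IC50 from fractional velocity vs inhibitor concentration fit to a 4-parameter equation.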
Chain of CDK6/Cyclin D3 (Q00534 whole entry): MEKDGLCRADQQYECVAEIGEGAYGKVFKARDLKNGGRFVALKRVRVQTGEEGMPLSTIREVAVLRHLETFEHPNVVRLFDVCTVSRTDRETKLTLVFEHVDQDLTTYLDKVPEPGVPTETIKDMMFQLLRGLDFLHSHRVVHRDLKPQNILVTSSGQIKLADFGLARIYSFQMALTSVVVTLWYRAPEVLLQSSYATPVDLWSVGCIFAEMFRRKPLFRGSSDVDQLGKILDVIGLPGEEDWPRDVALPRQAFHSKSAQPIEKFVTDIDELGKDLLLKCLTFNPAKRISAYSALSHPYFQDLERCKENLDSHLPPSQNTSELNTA
Chain of CDK6/Cyclin D3 (P30281 whole entry partner): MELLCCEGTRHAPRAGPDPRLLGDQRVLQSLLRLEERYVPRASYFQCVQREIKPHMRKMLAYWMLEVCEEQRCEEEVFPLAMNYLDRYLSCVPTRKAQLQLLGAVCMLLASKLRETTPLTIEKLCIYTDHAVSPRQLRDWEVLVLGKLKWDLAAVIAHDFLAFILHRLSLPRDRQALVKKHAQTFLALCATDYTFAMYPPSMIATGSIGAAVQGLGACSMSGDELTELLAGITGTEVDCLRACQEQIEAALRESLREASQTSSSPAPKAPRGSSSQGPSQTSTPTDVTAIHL

Assay [3] concerns the target CDK1/Cyclin B1 (Homo sapiens (Human), UniProt P06493). Description: CDK1/Cyclin B1 ADP-Glo Kinase Assay. Summed up: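 Purchased CDK1/Cyclin B1 was pre-incubated 30 min with inhibitor at room temperature, then reacted 90 min at room temperature after adding ATP-containing substrate. ADP formed was read by two-step ADP-Glo luminescence. IC50 came from a 4-parameter fit of fractional velocity versus inhibitor concentration.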
On the technique in general: ADP-Glo turns the ADP formed in a reaction into a luminescent signal.

The target of assay [4] is CDK2/Cyclin E1 full length (Homo sapiens (Human), UniProt P24941). Description: CDK2/Cyclin E1 Full length ADP-Glo Kinase Assay. As to conditions: read-out: CDK2/CyclinE1 IC50. The protocol: CDK2/Cyclin E1 Full length ADP-Glo Kinase Assay
The purpose of CDK2/Cyclin El assay is to evaluate the inhibition (% inhibition and IC50 values) of small molecule inhibitors by using a Luminescent based ADP-Glo assay. CDK2/Cyclin El full length catalyzes the production of ADP from ATP. ADP-Glo assay monitors ADP producing biochemical reactions. ADP-Glo is performed in 2 steps upon completion of kinase reaction: a combined termination of kinase reaction and depletion of remaining ATP in the first step, and conversion of generated ADP to ATP and the newly produced ATP to light output using luciferase/luciferin reaction in the second step. The luminescent signal generated is proportional to the ADP concentration produced and is correlated with the kinase activity. CDK2/Cyclin E1 was purchased from Eurofins (Cat 14-475M). […] The assay was initiated with the addition of ATP-containing substrate solution, following a 30-minute pre-incubation of enzyme and inhibitor at room temperature in the reaction mixture. The reaction was stopped after 90 minutes at room temperature by the addition of 10 μL of ADP-GLO Reagent. After a 90 minute incubation, 20 uL of Kinase Detection Reagent was added. Samples were incubated for 40 minutes, after which plate well luminescence was measured on a Envision microplate reader. The IC50 determinations were made from a plot of the fractional velocity as a function of inhibitor concentration fit to the 4 parameters IC50 equation.

In assay [5] the target is T1, CDK4/Cyclin D1. Description: CDK4/Cyclin D1 CHEF Assay. The note with it: AQT; read-out: CDK4/CyclinD1 AQT IC50. In a few lines: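 Peptide substrate AQT0258 carries a Sox fluorophore whose Mg(II)-dependent fluorescence (ex 360/em 485 nm) rises on phosphorylation. Enzyme and inhibitor pre-incubated 30 min at 22 °C, substrate added, reaction run 3 h at 22 °C. IC50 from 4-parameter fit of fractional velocity vs inhibitor concentration.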

T1 sequence (P11802 whole entry, species assumed): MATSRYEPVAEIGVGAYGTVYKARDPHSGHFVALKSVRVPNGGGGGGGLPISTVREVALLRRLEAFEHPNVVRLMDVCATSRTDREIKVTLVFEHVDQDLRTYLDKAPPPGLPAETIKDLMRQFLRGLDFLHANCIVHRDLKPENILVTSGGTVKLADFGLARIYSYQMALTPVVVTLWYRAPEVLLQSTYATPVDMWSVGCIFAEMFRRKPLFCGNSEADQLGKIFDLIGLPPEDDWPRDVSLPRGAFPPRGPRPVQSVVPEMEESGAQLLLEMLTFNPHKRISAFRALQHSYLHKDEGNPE
T1 sequence (P24385 whole entry partner, species assumed): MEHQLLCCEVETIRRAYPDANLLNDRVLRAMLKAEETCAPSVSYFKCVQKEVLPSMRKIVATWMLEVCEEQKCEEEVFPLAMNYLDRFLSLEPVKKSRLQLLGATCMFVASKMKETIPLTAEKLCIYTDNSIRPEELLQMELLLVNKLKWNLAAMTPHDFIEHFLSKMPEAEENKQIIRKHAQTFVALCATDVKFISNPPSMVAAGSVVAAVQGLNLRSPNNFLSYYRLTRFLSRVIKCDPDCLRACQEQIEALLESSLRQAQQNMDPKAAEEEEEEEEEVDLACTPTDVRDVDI
Chain of CDK1/Cyclin B1 (P06493 whole entry): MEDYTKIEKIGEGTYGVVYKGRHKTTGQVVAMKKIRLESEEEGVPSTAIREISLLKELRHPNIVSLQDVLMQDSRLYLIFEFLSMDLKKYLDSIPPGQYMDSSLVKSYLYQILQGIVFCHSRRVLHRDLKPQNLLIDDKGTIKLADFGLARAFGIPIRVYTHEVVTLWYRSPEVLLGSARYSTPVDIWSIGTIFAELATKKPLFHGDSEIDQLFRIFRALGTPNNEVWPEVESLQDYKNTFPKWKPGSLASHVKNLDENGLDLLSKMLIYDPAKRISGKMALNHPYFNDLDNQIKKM
Chain of CDK1/Cyclin B1 (P14635 whole entry partner): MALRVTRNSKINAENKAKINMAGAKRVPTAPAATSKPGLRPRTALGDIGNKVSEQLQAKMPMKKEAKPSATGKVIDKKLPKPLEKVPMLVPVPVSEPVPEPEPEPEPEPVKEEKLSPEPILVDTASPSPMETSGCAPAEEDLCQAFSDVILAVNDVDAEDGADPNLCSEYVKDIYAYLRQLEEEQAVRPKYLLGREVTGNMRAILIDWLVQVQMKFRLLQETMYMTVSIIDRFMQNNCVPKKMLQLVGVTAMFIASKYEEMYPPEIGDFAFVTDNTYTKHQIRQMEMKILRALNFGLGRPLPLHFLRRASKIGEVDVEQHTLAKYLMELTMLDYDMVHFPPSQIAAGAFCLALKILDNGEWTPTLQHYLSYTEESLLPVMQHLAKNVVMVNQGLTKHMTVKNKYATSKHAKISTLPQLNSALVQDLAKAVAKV

As for `CS(=O)(=O)N1CCC(Nc2ncc3ccnc(N4CCN(C5CC5)CC4)c3n2)CC1` [Compound 1, 8-(4-cyclopropylpiperazin-1-yl)-N-(1-(methylsulfonyl)piperidin-4-yl)pyrido[3,4-d]pyrimidin-2-amine], the IC50 is less than 200 nM in assay [1] and 200 to 500 nM in assay [2].
`CS(=O)(=O)N1CCC(Nc2ncc3ccnc(N4CCC5(C4)CC5(F)F)c3n2)CC1` (centres unmarked) [Compound 3, 8-(1,1-difluoro-5-azaspiro[2.4]heptan-5-yl)-N-(1-(methylsulfonyl)piperidin-4-yl)pyrido[3,4-d]pyrimidin-2-amine]: the IC50 in assay [1], in assay [2] and in assay [3] was less than 200 nM throughout.
`CN1CCN(c2ccc(Nc3ncc4ccnc(N5CCC6(C5)CC(F)(F)C6)c4n3)cc2)CC1` [Compound 4, 8-(2,2-difluoro-6-azaspiro[3.4]octan-6-yl)-N-(4-(4-methylpiperazin-1-yl)phenyl)pyrido [3,4-d]pyrimidin-2-amine]: the IC50 in assay [1] was less than 200 nM; in assay [2], less than 200 nM; in assay [3], 200 to 500 nM.
Consider `CS(=O)(=O)N1CCC(Nc2ncc3ccnc(N4CCC(C#N)(C5CC5)C4)c3n2)CC1` (centres unmarked) [Compound 5, 3-cyclopropyl-1-(2-((1-(methylsulfonyl)piperidin-4-yl)amino)pyrido[3,4-d]pyrimidin-8-yl)pyrrolidine-3-carbonitrile], for which the IC50 in assay [1], in assay [2] and in assay [3] was less than 200 nM throughout.
For the compound `CS(=O)(=O)N1CCC(Nc2ncc3ccnc(N4CCC5(CCOCC5)C4)c3n2)CC1` [Compound 7, N-(1-(methylsulfonyl)piperidin-4-yl)-8-(8-oxa-2-azaspiro[4.5]decan-2-yl)pyrido[3,4-d]pyrimidin-2-amine], the IC50 is less than 200 nM in assay [1], less than 200 nM in assay [2] and 200 to 500 nM in assay [3].
Turning to `CS(=O)(=O)N1CCC(Nc2ncc3ccnc(N4CC5(C4)CN(C4CC4)C5)c3n2)CC1` [Compound 8, 8-(6-cyclopropyl-2,6-diazaspiro[3.3]heptan-2-yl)-N-(1-(methylsulfonyl)piperidin-4-yl)pyrido[3,4-d]pyrimidin-2-amine], the IC50 is less than 200 nM in assay [1] and 200 to 500 nM in assay [3].
Taken in the same sequence, the figures for `CN1CCN(c2ccc(Nc3ncc4ccnc(N5CCC6(CCN(S(C)(=O)=O)C6)C5)c4n3)cc2)CC1` (centres unmarked) [Compound 9, N-(4-(4-methylpiperazin-1-yl)phenyl)-8-(7-(methylsulfonyl)-2,7-diazaspiro[4.4]nonan-2-yl) pyrido[3,4-d]pyrimidin-2-amine] were less than 200 nM and 200 to 500 nM.
`CN1CCn2nc(Nc3ncc4ccnc(N5CCC6(C5)CC6(F)F)c4n3)cc2C1` (centres unmarked) [Compound 10, 8-(1,1-difluoro-5-azaspiro[2.4]heptan-5-yl)-N-(5-methyl-4,5,6,7-tetrahydropyrazolo [1,5-a]pyrazin-2-yl)pyrido[3,4-d]pyrimidin-2-amine]: the IC50 was less than 200 nM in assay [1], less than 200 nM in assay [2] and more than 2000 nM in assay [3].
In the case of `CS(=O)(=O)N1CC(Nc2ncc3ccnc(N4CCC5(C4)CC5(F)F)c3n2)C1` (centres unmarked) [Compound 14, 8-(1,1-difluoro-5-azaspiro[2.4]heptan-5-yl)-N-(1-(methylsulfonyl)azetidin-3-yl) pyrido[3,4-d]pyrimidin-2-amine], the IC50 in assay [1] is less than 200 nM; in assay [2] it was less than 200 nM; in assay [3], 200 to 500 nM.
On to `CS(=O)(=O)N1CCC(Nc2ncc3ccnc(N4C[C@H]5c6ccccc6S(=O)(=O)[C@H]5C4)c3n2)CC1` [Compound 16, (3aR,8bR)-2-(2-((1-(methylsulfonyl)piperidin-4-yl)amino)pyrido[3,4-d]pyrimidin-8-yl)-2,3,3a,8b-tetrahydro-1H-benzo[4,5]thieno [2,3-c]pyrrole 4,4-dioxide], for which the IC50 in assay [1], in assay [4], in assay [2] and in assay [3] was less than 200 nM in each case.
Turning to `CN1C[C@@H]2[C@H](C1)[C@H]2Nc1ncc2ccnc(N3CCC4(C3)CC4(F)F)c2n1` (stereo partly drawn) [Compound 17, 8-(1,1-difluoro-5-azaspiro[2.4]heptan-5-yl)-N-((1R,5S,6s)-3-methyl-3-azabicyclo[3.1.0]hexan-6-yl) pyrido[3,4-d]pyrimidin-2-amine], the IC50 in assay [1] is less than 200 nM; in assay [4] it was 200 to 500 nM; in assay [2] it was 200 to 500 nM.
As to `CN1CCC(n2cc(Nc3ncc4ccnc(N5CCC6(C5)CC6(F)F)c4n3)cn2)CC1` (centres unmarked) [Compound 20, 8-(1,1-difluoro-5-azaspiro[2.4]heptan-5-yl)-N-(1-(1-methylpiperidin-4-yl)-1H-pyrazol-4-yl)pyrido[3,4-d]pyrimidin-2-amine], the IC50 in assay [1] and in assay [2] was less than 200 nM in each case.
Regarding `CCN1CC2(C1)CN(c1ccc(Nc3ncc4ccnc(N5CCC6(C5)CC6(F)F)c4n3)nc1)C2` (centres unmarked) [Compound 21, 8-(1,1-difluoro-5-azaspiro[2.4]heptan-5-yl)-N-(5-(6-ethyl-2,6-diazaspiro[3.3]heptan-2-yl)pyridin-2-yl)pyrido[3,4-d]pyrimidin-2-amine], the IC50 in assay [1] is less than 200 nM; in assay [4] it was 200 to 500 nM; in assay [2] it was less than 200 nM; in assay [3], more than 2000 nM.
Regarding `Cc1cc2cnc(NC3CCN(S(C)(=O)=O)CC3)nc2c(N2CC3(CN(C)C[C@H]3F)C2)n1` [Compound 104, (S)-8-(8-fluoro-6-methyl-2,6-diazaspiro[3.4]octan-2-yl)-6-methyl-N-(1-(methylsulfonyl)piperidin-4-yl)pyrido[3,4-d]pyrimidin-2-amine], the IC50 is less than 200 nM in assay [4], 200 to 500 nM in assay [2], 500 to 2000 nM in assay [3] and less than 200 nM in assay [5].
For `CS(=O)(=O)N1CCC(Nc2ncc3ccnc(N4CCC5(C4)CC(F)(F)C5)c3n2)CC1` [Example 2, 8-(2,2-difluoro-6-azaspiro[3.4]octan-6-yl)-N-(1-(methylsulfonyl)piperidin-4-yl)pyrido[3,4-d]pyrimidin-2-amine], the IC50 in assay [1], in assay [2] and in assay [3] was less than 200 nM throughout.
`CCN1CC2(C1)CN(c1ccc(Nc3ncc4ccnc(N5CCC6(C5)CC(F)(F)C6)c4n3)nc1)C2` [Example 6, 8-(2,2-difluoro-6-azaspiro[3.4]octan-6-yl)-N-(5-(6-ethyl-2,6-diazaspiro[3.3]heptan-2-yl)pyridin-2-yl)pyrido[3,4-d]pyrimidin-2-amine]: the figures for the IC50 in assay [1], in assay [2] and in assay [3] were less than 200 nM, less than 200 nM and more than 2000 nM, respectively.
